# Data: PubChem BioAssay AID743104 (Vanderbilt Specialized Chemistry Center, 2013)
# Biological target: Muscarinic acetylcholine receptor M5 (Rattus norvegicus) (UniProt P08911)
# Test: species ortholog inhibition of rat M5 response – cell-based, CHO-K1, Fluo-4 calcium flux, selectivity assay for human M5 NAM project (AID 743104)
# Settings: CHO-K1 rat M5, Fluo-4 calcium flux, ACh EC20
# Muscarinic acetylcholine receptor M5 (Rattus norvegicus), sequence (P08911 whole entry, looked up): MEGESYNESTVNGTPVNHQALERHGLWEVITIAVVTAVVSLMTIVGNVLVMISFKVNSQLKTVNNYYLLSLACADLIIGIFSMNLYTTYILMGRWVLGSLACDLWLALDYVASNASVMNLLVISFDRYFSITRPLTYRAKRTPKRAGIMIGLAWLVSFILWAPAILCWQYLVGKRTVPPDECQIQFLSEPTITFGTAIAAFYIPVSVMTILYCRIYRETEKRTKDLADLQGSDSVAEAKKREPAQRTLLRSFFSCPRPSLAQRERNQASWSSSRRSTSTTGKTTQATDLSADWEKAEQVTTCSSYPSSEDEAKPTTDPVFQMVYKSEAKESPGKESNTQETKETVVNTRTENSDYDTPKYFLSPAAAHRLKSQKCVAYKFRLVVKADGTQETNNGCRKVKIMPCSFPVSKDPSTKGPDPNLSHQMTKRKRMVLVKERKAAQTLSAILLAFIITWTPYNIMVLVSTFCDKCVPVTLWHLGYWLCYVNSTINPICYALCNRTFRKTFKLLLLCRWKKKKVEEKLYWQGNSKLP
row,IC50 [µM],SMILES
1,6.21,O=C(c1ccc(F)cc1)N1CCN2C(=O)c3ccccc3C12c1ccccc1 (stereo not drawn)
2,3.54,O=C(c1cc(F)cc(F)c1)N1CCN2C(=O)c3ccccc3C12c1ccc(Cl)cc1 (stereo not drawn)
3,2,O=C(c1ccc(F)c(F)c1)N1CCN2C(=O)c3ccccc3C12c1ccccc1 (stereo not drawn)
